Experimental data taken from PMC5218480 (PLoS ONE, 2017).

Tested on: MV-4-11 cells
Assay: Gene expression microarray analysis (Affymetrix PrimeView) and GSEA
Type: cell-based, human
Parameters: RFU PODN (11730768_x_at) / Fold change /veh PODN (11730768_x_at) / RFU LINC00158 (11744669_a_at) / Fold change /veh LINC00158 (11744669_a_at) / RFU DUSP10 (11751237_a_at) / Fold change /veh DUSP10 (11751237_a_at) / RFU ID3 (11757404_x_at) / Fold change /veh ID3 (11757404_x_at) / RFU PLEKHG5 (11737974_s_at) / Fold change /veh PLEKHG5 (11737974_s_at) / RFU LRRC4B (11730491_at) / Fold change /veh LRRC4B (11730491_at) / RFU GIMAP4 (11747438_a_at) / Fold change /veh GIMAP4 (11747438_a_at) / RFU KRT8 (11758183_x_at) / Fold change /veh KRT8 (11758183_x_at) / RFU CNN1 (11734310_a_at) / Fold change /veh CNN1 (11734310_a_at) / RFU VPS37D (11726825_at) / Fold change /veh VPS37D (11726825_at) / RFU C10orf10 (11716522_x_at) / Fold change /veh C10orf10 (11716522_x_at) / RFU KIR2DL2 /// KIR2DL4 /// KIR2DL5A /// KIR2DL5B /// KIR2DS1 /// KIR2DS2 /// KIR2DS3 /// KIR2DS4 /// KIR3DL3 /// KIR3DL3 /// KIR3DS1 (11738374_at) / Fold change /veh KIR2DL2 /// KIR2DL4 /// KIR2DL5A /// KIR2DL5B /// KIR2DS1 /// KIR2DS2 /// KIR2DS3 /// KIR2DS4 /// KIR3DL3 /// KIR3DL3 /// KIR3DS1 (11738374_at) / RFU C1QL1 (11718748_at) / Fold change /veh C1QL1 (11718748_at) / RFU TMPRSS4 (11747572_a_at) / Fold change /veh TMPRSS4 (11747572_a_at) / RFU HAMP (11756126_x_at) / Fold change /veh HAMP (11756126_x_at) / RFU RNFT2 (11725882_a_at) / Fold change /veh RNFT2 (11725882_a_at) / RFU NR4A2 (11747474_a_at) / Fold change /veh NR4A2 (11747474_a_at) / RFU ABCC12 (11746883_a_at) / Fold change /veh ABCC12 (11746883_a_at) / RFU TMEM136 (11760407_x_at) / Fold change /veh TMEM136 (11760407_x_at) / RFU CLDN22 /// WWC2 (11732394_at) / Fold change /veh CLDN22 /// WWC2 (11732394_at) / RFU HLA-DPB1 (11760878_x_at) / Fold change /veh HLA-DPB1 (11760878_x_at) / RFU SPINT1 (11716480_a_at) / Fold change /veh SPINT1 (11716480_a_at) / RFU GAP43 (11754022_s_at) / Fold change /veh GAP43 (11754022_s_at) / RFU A4GNT (11735810_at) / Fold change /veh A4GNT (11735810_at) / RFU PRB3 (11715151_x_at) / Fold change /veh PRB3 (11715151_x_at) / RFU TUBB4B (11761932_at) / Fold change /veh TUBB4B (11761932_at) / RFU CAPN14 (11732068_a_at) / Fold change /veh CAPN14 (11732068_a_at) / RFU TMCC2 (11721928_a_at) / Fold change /veh TMCC2 (11721928_a_at) / RFU IRGQ (11745062_a_at) / Fold change /veh IRGQ (11745062_a_at) / RFU FAM174B (11720279_a_at) / Fold change /veh FAM174B (11720279_a_at) / RFU TMPRSS4 (11748680_a_at) / Fold change /veh TMPRSS4 (11748680_a_at) / RFU FAM212B (11763350_a_at) / Fold change /veh FAM212B (11763350_a_at) / RFU PLEKHG5 (11743358_a_at) / Fold change /veh PLEKHG5 (11743358_a_at) / RFU ZSCAN30 (11745921_a_at) / Fold change /veh ZSCAN30 (11745921_a_at) / RFU CMKLR1 (11741424_a_at) / Fold change /veh CMKLR1 (11741424_a_at) / RFU LOC101060620 /// MAPK8IP1 (11723275_at) / Fold change /veh LOC101060620 /// MAPK8IP1 (11723275_at) / RFU SPTSSB (11747773_x_at) / Fold change /veh SPTSSB (11747773_x_at) / RFU PRSS12 (11739890_at) / Fold change /veh PRSS12 (11739890_at) / RFU BIN1 (11741810_x_at) / Fold change /veh BIN1 (11741810_x_at) / RFU WNT11 (11732464_a_at) / Fold change /veh WNT11 (11732464_a_at) / RFU C10orf10 (11716521_a_at) / Fold change /veh C10orf10 (11716521_a_at) / RFU C5orf56 (11738089_at) / Fold change /veh C5orf56 (11738089_at) / RFU CYB561 (11721691_x_at) / Fold change /veh CYB561 (11721691_x_at) / RFU ANKRD19P (11752326_a_at) / Fold change /veh ANKRD19P (11752326_a_at) / RFU OR2T12 /// OR2T33 /// OR2T8 (11738714_s_at) / Fold change /veh OR2T12 /// OR2T33 /// OR2T8 (11738714_s_at) / RFU VCAN (11748164_a_at) / Fold change /veh VCAN (11748164_a_at) / RFU JSRP1 (11732532_at) / Fold change /veh JSRP1 (11732532_at) / RFU KRTAP10-11 (11738290_x_at) / Fold change /veh KRTAP10-11 (11738290_x_at) / RFU MYO3A (11730013_a_at) / Fold change /veh MYO3A (11730013_a_at) / RFU EBF3 (11725865_a_at) / Fold change /veh EBF3 (11725865_a_at) / RFU CAMK2N1 (11719241_x_at) / Fold change /veh CAMK2N1 (11719241_x_at) / RFU C5orf56 (11738088_a_at) / Fold change /veh C5orf56 (11738088_a_at) / RFU OLFML3 (11715873_a_at) / Fold change /veh OLFML3 (11715873_a_at) / RFU LOC100653217 /// NTM (11731650_a_at) / Fold change /veh LOC100653217 /// NTM (11731650_a_at) / RFU MAPK11 (11762145_a_at) / Fold change /veh MAPK11 (11762145_a_at) / RFU FIZ1 (11724087_x_at) / Fold change /veh FIZ1 (11724087_x_at) / RFU OASL (11726364_x_at) / Fold change /veh OASL (11726364_x_at) / RFU SOX15 (11748057_x_at) / Fold change /veh SOX15 (11748057_x_at) / RFU CD79A (11719716_a_at) / Fold change /veh CD79A (11719716_a_at) / RFU HIST1H1D (11736915_at) / Fold change /veh HIST1H1D (11736915_at) / RFU CASKIN2 (11723855_a_at) / Fold change /veh CASKIN2 (11723855_a_at) / RFU LOC730098 (11760151_x_at) / Fold change /veh LOC730098 (11760151_x_at) / RFU OR4N2 (11742367_at) / Fold change /veh OR4N2 (11742367_at) / RFU PRRT2 (11749266_a_at) / Fold change /veh PRRT2 (11749266_a_at) / RFU SNX32 (11753110_a_at) / Fold change /veh SNX32 (11753110_a_at) / RFU CDHR5 (11726645_a_at) / Fold change /veh CDHR5 (11726645_a_at) / RFU RCAN1 (11760418_a_at) / Fold change /veh RCAN1 (11760418_a_at) / RFU FAM167A (11723789_a_at) / Fold change /veh FAM167A (11723789_a_at) / RFU FAM26E (11764081_at) / Fold change /veh FAM26E (11764081_at) / RFU ISYNA1 (11749810_s_at) / Fold change /veh ISYNA1 (11749810_s_at) / RFU ACY1 (11761880_at) / Fold change /veh ACY1 (11761880_at) / RFU 11764098_at / Fold change /veh 11764098_at / RFU SAMD14 (11745864_x_at) / Fold change /veh SAMD14 (11745864_x_at) / RFU NPB (11741838_a_at) / Fold change /veh NPB (11741838_a_at) / RFU TMPRSS6 (11731388_a_at) / Fold change /veh TMPRSS6 (11731388_a_at) / RFU KRTAP10-2 (11738614_at) / Fold change /veh KRTAP10-2 (11738614_at) / RFU ARHGAP8 /// PRR5-ARHGAP8 (11727945_x_at) / Fold change /veh ARHGAP8 /// PRR5-ARHGAP8 (11727945_x_at) / RFU KRTAP5-7 /// NADSYN1 (11734609_at) / Fold change /veh KRTAP5-7 /// NADSYN1 (11734609_at) / RFU RASL12 (11751679_a_at) / Fold change /veh RASL12 (11751679_a_at) / RFU CDKN2B (11736163_a_at) / Fold change /veh CDKN2B (11736163_a_at) / RFU PRF1 (11729649_at) / Fold change /veh PRF1 (11729649_at) / RFU, ZNF638 /// ZNF638-IT1 / Fold change vs veh, ZNF638 /// ZNF638-IT1 / RFU, PANK3 / Fold change vs veh, PANK3 / RFU, SH3YL1 / Fold change vs veh, SH3YL1 / RFU, ZEB2 / Fold change vs veh, ZEB2 / RFU, NRIP1 / Fold change vs veh, NRIP1 / RFU, PTTG1IP / Fold change vs veh, PTTG1IP / RFU, CAPN2 / Fold change vs veh, CAPN2 / RFU, MED14 / Fold change vs veh, MED14 / RFU, SNORA58 / Fold change vs veh, SNORA58 / RFU, C1orf63 / Fold change vs veh, C1orf63 / RFU, LRRFIP1 / Fold change vs veh, LRRFIP1 / RFU, NDUFAF7 / Fold change vs veh, NDUFAF7 / RFU, SLC12A2 / Fold change vs veh, SLC12A2 / RFU, IBTK / Fold change vs veh, IBTK / RFU, ESF1 / Fold change vs veh, ESF1 / Fold change vs veh, TMEM50B / RFU, TAOK1 / Fold change vs veh, TAOK1 / RFU, ACBD3 / Fold change vs veh, ACBD3 / RFU, TMA16 / Fold change vs veh, TMA16 / RFU, RWDD3 / Fold change vs veh, RWDD3 / RFU, BCAT1 / Fold change vs veh, BCAT1 / RFU, EDEM3 / Fold change vs veh, EDEM3 / RFU, TMEM33 / Fold change vs veh, TMEM33 / RFU, WDR75 / Fold change vs veh, WDR75 / RFU, AHCTF1 / Fold change vs veh, AHCTF1 / RFU, TFRC / Fold change vs veh, TFRC / RFU, ZDHHC17 / Fold change vs veh, ZDHHC17 / RFU, NOM1 / Fold change vs veh, NOM1 / RFU, ARL8B / Fold change vs veh, ARL8B / RFU, ZBTB11 / Fold change vs veh, ZBTB11 / RFU, TAMM41 / Fold change vs veh, TAMM41 / RFU, KIAA1704 /// LOC100996395 / Fold change vs veh, KIAA1704 /// LOC100996395 / RFU, ING1 / Fold change vs veh, ING1 / RFU, TRMT61B / Fold change vs veh, TRMT61B / RFU, FUBP3 / Fold change vs veh, FUBP3 / RFU, TP53 / Fold change vs veh, TP53 / RFU, TNKS2 / Fold change vs veh, TNKS2 / RFU, ZFP14 / Fold change vs veh, ZFP14 / RFU, ACTR2 / Fold change vs veh, ACTR2 / RFU, PPP3R1 / Fold change vs veh, PPP3R1 / RFU, PIK3R1 / Fold change vs veh, PIK3R1 / RFU, HNRNPA1 / Fold change vs veh, HNRNPA1 / RFU, RNF170 / Fold change vs veh, RNF170 / RFU, ZNF28 / Fold change vs veh, ZNF28 / RFU, RNGTT / Fold change vs veh, RNGTT / RFU, OGT / Fold change vs veh, OGT / RFU, BRD1 / Fold change vs veh, BRD1 / RFU, MARS / Fold change vs veh, MARS / RFU, ZNF655 / Fold change vs veh, ZNF655 / RFU, FAHD1 / Fold change vs veh, FAHD1 / RFU, BDP1 / Fold change vs veh, BDP1 / RFU, LRRCC1 / Fold change vs veh, LRRCC1 / RFU, ARID1A / Fold change vs veh, ARID1A / RFU, ZNF146 / Fold change vs veh, ZNF146 / RFU, ZNF330 / Fold change vs veh, ZNF330 / RFU, GPN3 / Fold change vs veh, GPN3 / RFU, C9orf123 / Fold change vs veh, C9orf123 / RFU, N4BP2L2 / Fold change vs veh, N4BP2L2 / RFU, ARFIP1 / Fold change vs veh, ARFIP1 / RFU, FAM179B / Fold change vs veh, FAM179B / RFU, BCL10 / Fold change vs veh, BCL10 / RFU, UHRF1BP1L / Fold change vs veh, UHRF1BP1L / RFU, BET1 / Fold change vs veh, BET1 / RFU, CNOT2 / Fold change vs veh, CNOT2 / RFU, ZNF268 / Fold change vs veh, ZNF268 / Fold change vs veh, ZNF507 / RFU, DGCR2 / Fold change vs veh, DGCR2 / RFU, WDSUB1 / Fold change vs veh, WDSUB1 / Fold change vs veh, HSP90B1 /// MIR3652 / RFU, ADSS / Fold change vs veh, ADSS / RFU, GK / Fold change vs veh, GK / RFU, ZNF148 / Fold change vs veh, ZNF148 / RFU, TAF9 / Fold change vs veh, TAF9 / RFU, SLC1A5 / Fold change vs veh, SLC1A5 / RFU, SLMO2 / Fold change vs veh, SLMO2 / RFU, ABCC4 / Fold change vs veh, ABCC4 / RFU, LOC101060439 /// RAP1B / Fold change vs veh, LOC101060439 /// RAP1B / RFU, RFX7 / Fold change vs veh, RFX7 / RFU, GTPBP10 / Fold change vs veh, GTPBP10 / RFU, CNEP1R1 / Fold change vs veh, CNEP1R1 / RFU, BIVM-ERCC5 /// ERCC5 / Fold change vs veh, BIVM-ERCC5 /// ERCC5 / RFU, ILF3 / Fold change vs veh, ILF3 / RFU 11762660_at / Fold change /veh 11762660_at / RFU VCAN (11757783_s_at) / Fold change /veh VCAN (11757783_s_at) / RFU DDX43 (11728927_at) / Fold change /veh DDX43 (11728927_at) / RFU KRT8 (11758188_x_at) / Fold change /veh KRT8 (11758188_x_at) / RFU NKD1 (11759106_at) / Fold change /veh NKD1 (11759106_at) / RFU SRD5A1 (11742802_a_at) / Fold change /veh SRD5A1 (11742802_a_at) / RFU TPSAB1 /// TPSB2 (11721975_s_at) / Fold change /veh TPSAB1 /// TPSB2 (11721975_s_at) / RFU GSTM3 (11746129_a_at) / Fold change /veh GSTM3 (11746129_a_at) / RFU IL23R (11737362_x_at) / Fold change /veh IL23R (11737362_x_at) / RFU TMEM51 (11727254_a_at) / Fold change /veh TMEM51 (11727254_a_at) / RFU PIWIL2 (11732686_x_at) / Fold change /veh PIWIL2 (11732686_x_at) / RFU ORM1 (11744905_x_at) / Fold change /veh ORM1 (11744905_x_at) / RFU CCDC152 (11743942_at) / Fold change /veh CCDC152 (11743942_at) / RFU ECM1 (11717891_a_at) / Fold change /veh ECM1 (11717891_a_at) / RFU IL23R (11748794_a_at) / Fold change /veh IL23R (11748794_a_at) / RFU TNFAIP8L3 (11732012_x_at) / Fold change /veh TNFAIP8L3 (11732012_x_at) / RFU MBOAT4 (11741988_at) / Fold change /veh MBOAT4 (11741988_at) / RFU 11764193_at / Fold change /veh 11764193_at / RFU TMEM53 (11763286_at) / Fold change /veh TMEM53 (11763286_at) / RFU MAGEB2 (11727129_at) / Fold change /veh MAGEB2 (11727129_at) / RFU TMEM200A (11744735_a_at) / Fold change /veh TMEM200A (11744735_a_at) / RFU CCDC152 (11751479_a_at) / Fold change /veh CCDC152 (11751479_a_at) / RFU FAM211A (11726209_a_at) / Fold change /veh FAM211A (11726209_a_at) / RFU RGS16 (11746705_a_at) / Fold change /veh RGS16 (11746705_a_at) / RFU VCAN (11755009_s_at) / Fold change /veh VCAN (11755009_s_at) / RFU RHOB (11743442_s_at) / Fold change /veh RHOB (11743442_s_at) / RFU RGS16 (11720943_a_at) / Fold change /veh RGS16 (11720943_a_at) / RFU RGS16 (11720944_at) / Fold change /veh RGS16 (11720944_at) / RFU, VPS4B / Fold change vs veh, VPS4B / RFU, CREB1 / Fold change vs veh, CREB1 / RFU, DNAJC13 / Fold change vs veh, DNAJC13 / RFU, GNAQ / Fold change vs veh, GNAQ / RFU, CDK5R1 / Fold change vs veh, CDK5R1 / RFU, ZRANB3 / Fold change vs veh, ZRANB3 / RFU, CUL4A / Fold change vs veh, CUL4A / RFU, CCNY / Fold change vs veh, CCNY / RFU, UFL1 / Fold change vs veh, UFL1 / RFU, COG3 / Fold change vs veh, COG3 / RFU, DIAPH2 / Fold change vs veh, DIAPH2 / RFU, SKA2 / Fold change vs veh, SKA2 / RFU, AFF3 / Fold change vs veh, AFF3 / RFU, LMF1 / Fold change vs veh, LMF1 / RFU, IPO11 / Fold change vs veh, IPO11 / RFU, DFFB / Fold change vs veh, DFFB / RFU, FOXP1 / Fold change vs veh, FOXP1 / RFU, CARD8 / Fold change vs veh, CARD8 / RFU, STRN3 / Fold change vs veh, STRN3 / RFU, ADK / Fold change vs veh, ADK / RFU, RASSF2 / Fold change vs veh, RASSF2 / RFU, WIPF1 / Fold change vs veh, WIPF1 / RFU, LARP1B / Fold change vs veh, LARP1B / RFU, RASA1 / Fold change vs veh, RASA1 / RFU, RB1 / Fold change vs veh, RB1 / RFU, PPFIA1 / Fold change vs veh, PPFIA1 / RFU, MAT2A / Fold change vs veh, MAT2A / RFU, CCT5 / Fold change vs veh, CCT5 / RFU, WDR92 / Fold change vs veh, WDR92 / RFU, CUX1 / Fold change vs veh, CUX1 / RFU, TTC7A / Fold change vs veh, TTC7A / RFU, TMEM135 / Fold change vs veh, TMEM135 / RFU, DEPTOR / Fold change vs veh, DEPTOR / RFU, CPM / Fold change vs veh, CPM / RFU, DNAJB6 / Fold change vs veh, DNAJB6 / RFU, CACNA2D3 / Fold change vs veh, CACNA2D3 / RFU, DTX4 / Fold change vs veh, DTX4 / RFU, TFCP2 / Fold change vs veh, TFCP2 / RFU, GMCL1 /// GMCL1P1 / Fold change vs veh, GMCL1 /// GMCL1P1 / RFU, AEBP2 / Fold change vs veh, AEBP2 / RFU, SNHG1 /// SNORD22 /// SNORD25 /// SNORD26 /// SNORD27 /// SNORD28 /// SNORD29 /// SNORD31 / Fold change vs veh, SNHG1 /// SNORD22 /// SNORD25 /// SNORD26 /// SNORD27 /// SNORD28 /// SNORD29 /// SNORD31 / Fold change (Aza/veh), C12orf56 (ProbeSet 11735607_a_at) / Fold change (ACY-1035/veh), C12orf56 (ProbeSet 11735607_a_at) / Fold change (Aza/veh), FGFR1OP (ProbeSet 11751329_s_at) / Fold change (ACY-1035/veh), FGFR1OP (ProbeSet 11751329_s_at) / Fold change (Aza/veh), VPS36 (ProbeSet 11739960_a_at) / Fold change (ACY-1035/veh), VPS36 (ProbeSet 11739960_a_at) / RFU SYPL1 (11715823_x_at) / Fold change /veh SYPL1 (11715823_x_at) / RFU IGFBP7 (11715501_s_at) / Fold change /veh IGFBP7 (11715501_s_at) / RFU REEP3 (11722064_at) / Fold change /veh REEP3 (11722064_at) / RFU IGLL1 (11728026_x_at) / Fold change /veh IGLL1 (11728026_x_at): dose or concentration left out as unconfirmed
Conditions: MV-4-11 cells, 48 hours

SMILES: Nc1ncn([C@@H]2O[C@H](CO)[C@@H](O)[C@H]2O)c(=O)n1 [azacitidine]
- RFU VCAN (11757783_s_at): 10.94 RFU
